These are literature values, as cited in US10195206B2, “Two-component pharmaceutical composition for the treatment of pain” (BRIDGE THERAPEUTICS, INC., priority 2005, dated 2019).

The conditions of data set [1]: in vivo.
For data set [2] the following is noted: in vivo. This is another data set of the same source.

For `CO[C@]12CCC3(C[C@@H]1[C@](C)(O)C(C)(C)C)[C@H]1Cc4ccc(O)c5c4[C@@]3(CCN1CC1CC1)[C@H]2O5.Cl` [Buprenorphine, 17-(cyclopropylmethyl)-α-(1,1-dimethylethyl)-4,5-epoxy-18,19-dihydro-3-hydroxy-6-methoxy-α-methyl-6,14-ethenomorphian-7-methanol], the solubility in water entry was “limited solubility”. For the same molecule, the half-life entry in data set [1] is recorded as “approximately 36 hours”. Besides, the “oral and/or gastrointestinal bioavailability” value in data set [2] was “poor”.
For the molecule `CN1C(C(=O)Nc2ccccn2)=C(O)c2ccccc2S1(=O)=O` [Piroxicam, 4-hydroxyl-2-methyl-N-2-pyridinal-2H-1,2-benzothiazine-3-carboximide 1,1-dioxide], the solubility in water result is listed as “sparingly soluble”. For the same molecule, the half-life entry in data set [1] is listed as “approximately 50 hours”.
